Data reported in publication PMC10353390, “Biological and Structural Analyses of New Potent Allosteric Inhibitors of HIV-1 Integrase” (Antimicrobial Agents and Chemotherapy, 2023).
Like-named read-outs stand apart in the source and are kept apart here.

Columns and labels:
[1] = design: method as in ref 47 = [47]; 47 Mitchell M , Balakrishnan M , Brizgys G , Cai R , Lansdon E , Mulato A , Osier M , Wang J , Yu H , Sakowicz R . 2017 . Novel non-catalytic site integrase inhibitor with improved resistance profile.; details: precluded further clinical investigation; cited from earlier work
[2] = test system: primary HIV-1 isolates with polymorphisms at IN positions 124 and 125; assay: Multiple-round infection of MT4 cells with primary HIV-1 isolates polymorphic at IN positions 124 and 125; assay type: cell-based; details: primary isolate
How it was run: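 Exponentially growing MT4 cells at 10^6/mL infected for 2 h at MOI 0.001 in the presence of varying compound concentrations. Cell viability quantified by CellTiter-Glo luminescence.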

[3] = molecular target: CCD of HIV-1 IN and IBD of LEDGF/p75 (Human immunodeficiency virus type 1 group M subtype B, UniProt P12497); assay: biochemical
Protocol: The INLAIs were tested for the ability to inhibit the HIV-1 IN-LEDGF/p75 interaction in a homogeneous time-resolved fluorescence (HTRF) assay. Our assays used either full-length IN and LEDGF/p75 proteins or their respective minimally sufficient interaction domains: the CCD of HIV-1 IN and the IBD of LEDGF/p75 (Table 1).
HTRF-based CCD-IBD interaction, IN-LEDGF/p75 interaction and IN multimerization assays were performed as described previously ([12]).

[4] = test system: NL4-3 HIV-1 strain; assay: Multiple-round infection assay in MT4 cells, NL4-3; assay type: cell-based; details: MT4 cells
[5] = test system: recombinant NL4-3 viruses with polymorphisms at IN positions 124 and 125; assay: Multiple-round infection of MT4 cells with recombinant NL4-3 viruses polymorphic at IN positions 124 and 125; assay type: cell-based, HIV-1
How it was run: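 MT4 cells (10^6/mL) infected with NL4-3 carrying IN 124/125 polymorphisms (15 combinations) at MOI 0.001 for 2 h with compound present. Viability read by CellTiter-Glo luminescence; EC50 expressed as fold change versus wild-type NL4-3 (Thr124/Thr125).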

[6] = test system: HXB2 HIV-1 strain; assay: Multiple-round infection assay in MT4 cells, HXB2; assay type: cell-based; details: Human immunodeficiency virus 1, HXB2; multiple-round infection, MT4 cells; mean ± SD, n > 5; read-out: EC50 HXB2
How it was run: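 MT4 cells at 10^6/mL were infected with HIV-1 at MOI 0.001 for 2 h in the presence of compound dilutions. Cell viability, measured by CellTiter-Glo luminescence, served as the read-out of protection in this multiple-round infection.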

[7] = test system: NL4-3 HIV-1 with INLAI-selected IN single point mutations; assay type: cell-based
[8] = test system: lab-adapted and clinical HIV-1 isolates; assay: Infection assays in primary T CD4+ lymphocytes; assay type: cell-based; details: Human immunodeficiency virus 1, Lymphocyte
[9] = molecular target: HIV-1 IN-LEDGF/p75 interaction (Human immunodeficiency virus type 1 group M subtype B, UniProt P12497); assay: biochemical
[10] = Cytotoxicity assay in MT4 cells; assay type: cell-based; details: human, MT4 cells (proliferating human T-cell line), CellTiter-Glo
Text: Growth inhibition was monitored in a proliferating human T-cell line (MT4) with different concentrations of compounds, using the CellTiter-Glo luminescent reagent (Promega), as previously described ([12]).

[11] = test system: VSV-G-pseudotyped NL4-3Δenv-luc; assay: microbe, parasite or virus in culture; assay type: cell-based, HIV-1; details: Human immunodeficiency virus 1, NL43, MT4, read-out: EC50 in single-round infection
[12] = molecular target: T1, HIV-1 IN (Human immunodeficiency virus type 1 group M subtype B, UniProt P12497); assay: HTRF IN multimerization assay; assay type: biochemical; details: mean ± SD
T1 construct: made in house
Text: A key property of INLAIs is the ability to promote HIV-1 IN homo-multimerization ([39][–][42]). […] The maximal signal (plateau) in our IN aggregation assay corresponds to the highest HTRF signal increase under saturating INLAI concentration, relative to baseline level. Thus, MUT916, MUT884, MUT871, and MUT872 increased HIV-1 IN aggregation 3.7 to 4.4-fold, while BDM-2, BI-224436, and S-I-82 did so 5 to 6-fold (Table 1).

[13] = test system: HIV-1 strains resistant to INSTIs, NRTIs, NNRTIs or PIs; assay type: cell-based; details: PI-resistant virus
How it was run: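 NL4-3-based recombinant mutants and drug-resistant clinical isolates; exponentially growing MT4 cells (10^6/mL) infected at MOI 0.001 for 2 h with compound at varying concentrations. Protection quantified as cell viability by CellTiter-Glo luminescence.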

[14] = design: method as in ref 22 = [22]; 22 Meng X , Donazzolo Y , Kim B , Kim K . 2022 . The first-in-human clinical trial of STP0404, a novel potent HIV-1 allosteric integrase inhibitor . Poster PESUB2624th AIDS Conference , Montreal, Cana; details: cited from earlier work

Cc1cc2nc(-c3ccc4c(c3)c(C3CCN(C5COC5)CC3)nn4C)sc2c(-c2ccc(Cl)cc2)c1[C@H](OC(C)(C)C)C(=O)O [GS-9822]
toxicity [1]: renal and urinary bladder toxicity

Cc1cc(NS(=O)(=O)CC2CCCCC2)c(C)c(C(OC(C)(C)C)C(=O)O)c1-c1ccc2c(c1)CCCO2 (stereo not drawn) [S-I-82, reference compound]
Fold change in EC50 relative to parental NL4-3, CAM2BBY (CRF02) ([2]; IN 124/125 AA): 2
Fold change in EC50 relative to parental NL4-3, E0836M4 (D) ([2]; IN 124/125 AA): 1
Fold change in EC50 relative to parental NL4-3, KER2008 (A) ([2]; IN 124/125 AA): 1
Fold change in EC50 relative to parental NL4-3, NP1525 (CRF01) ([2]; IN 124/125 AA): 2
Fold change in EC50 relative to parental NL4-3, NP1695 (CRF02) ([2]; IN 124/125 AA): 1
Fold change in EC50 relative to parental NL4-3, TZA125 (C) ([2]; IN 124/125 AA): 1
Fold change in EC50 relative to parental NL4-3, KSM4030 (A) ([2]; IN 124/125 GA): 6
Fold change in EC50 relative to parental NL4-3, vGA (C) ([2]; IN 124/125 GA): 4
Fold change in EC50 relative to parental NL4-3, 99ET14 (C) ([2]; IN 124/125 NA): 210
Fold change in EC50 relative to parental NL4-3, NP1538 (B) ([2]; IN 124/125 NA): 1
Fold change in EC50 relative to parental NL4-3, vNA_1 (B) ([2]; IN 124/125 NA): 23
Fold change in EC50 relative to parental NL4-3, vNA_2 (CRF02) ([2]; IN 124/125 NA): 23
Fold change in EC50 relative to parental NL4-3, vNV (B) ([2]; IN 124/125 NV): 34
Fold change in EC50 relative to parental NL4-3, vSA_1 (B) ([2]; IN 124/125 SA): 12
Fold change in EC50 relative to parental NL4-3, vSA_2 (CRF02) ([2]; IN 124/125 SA): 4
Fold change in EC50 relative to parental NL4-3, vTA_1 (B) ([2]; IN 124/125 TA): 3
Fold change in EC50 relative to parental NL4-3, vTA_2 (CRF02) ([2]; IN 124/125 TA): 3
IC50 [3]: 430 ± 130 nM
EC90 ([4]; Human immunodeficiency virus 1, NL43, multiple-round infection, from dose response curves, read-out: EC90 NL4-3): 21 ± 7.2 nM
EC50 ([4]; Human immunodeficiency virus 1, NL43, multiple-round infection, mean ± SD, n > 5, read-out: EC50 NL4-3): 12 ± 3 nM
Selectivity index CC50/EC50 NL4-3 [4]: 2,333
Fold change in EC50 relative to parental NL4-3, AA ([5]; recombinant NL4-3, IN 124/125 AA): 1
Fold change in EC50 relative to parental NL4-3, AM ([5]; recombinant NL4-3, IN 124/125 AM): 1
Fold change in EC50 relative to parental NL4-3, AT ([5]; recombinant NL4-3, IN 124/125 AT): 1
Fold change in EC50 relative to parental NL4-3, AV ([5]; recombinant NL4-3, IN 124/125 AV): 2
Fold change in EC50 relative to parental NL4-3, GA ([5]; recombinant NL4-3, IN 124/125 GA): 3
Fold change in EC50 relative to parental NL4-3, GT ([5]; recombinant NL4-3, IN 124/125 GT): 3
Fold change in EC50 relative to parental NL4-3, NA ([5]; recombinant NL4-3, IN 124/125 NA): 10
Fold change in EC50 relative to parental NL4-3, NT ([5]; recombinant NL4-3, IN 124/125 NT): 5
Fold change in EC50 relative to parental NL4-3, NV ([5]; recombinant NL4-3, IN 124/125 NV): 5
Fold change in EC50 relative to parental NL4-3, SA ([5]; recombinant NL4-3, IN 124/125 SA): 4
Fold change in EC50 relative to parental NL4-3, ST ([5]; recombinant NL4-3, IN 124/125 ST): 2
Fold change in EC50 relative to parental NL4-3, TA ([5]; recombinant NL4-3, IN 124/125 TA): 2
Fold change in EC50 relative to parental NL4-3, TM ([5]; recombinant NL4-3, IN 124/125 TM): 1
Fold change in EC50 relative to parental NL4-3, TV ([5]; recombinant NL4-3, IN 124/125 TV): 1
EC50 [6]: 4.1 ± 0.7 nM
EC50 fold change compared to wild type NL4-3, A128T [7]: 4
EC50 fold change compared to wild type NL4-3, H171Q [7]: 2
EC50 fold change compared to wild type NL4-3, N222K [7]: 1
EC50 fold change compared to wild type NL4-3, T174I [7]: 15
EC50 fold change compared to wild type NL4-3, Y99H [7]: 2
EC50 ([8]; read-out: EC50 33913N (B)): 4.4 ± 1.9 nM
EC50 ([8]; read-out: EC50 HXB2 (B)): 5.2 ± 3.9 nM
EC50 ([8]; read-out: EC50 KER2008 (A)): 11 ± 2 nM
EC50 ([8]; read-out: EC50 NL4-3 (B)): 9.9 ± 1.1 nM
EC50 ([8]; read-out: EC50 NP1525 (CRF01_AE)): 10 ± 4 nM
EC50 ([8]; read-out: EC50 NP1538 (B)): 8.6 ± 0.5 nM
IC50 [9]: 820 ± 380 nM
CC50 [10]: 28000 ± 3000 nM
EC50 [11]: 9200 ± 1100 nM
AC50 ([12]; concentration for 50% maximum activation of multimerization): 47 ± 31 nM
IN multimerization Plateau ([12]; maximum multimerization reached versus baseline): 500 ± 43%
Fold change in EC50 relative to NL4-3, ARP-4595 [13]: 1
Fold change in EC50 relative to NL4-3, ARP-4596 [13]: 0.5
Fold change in EC50 relative to NL4-3, ARP-11801 [13]: 1
Fold change in EC50 relative to NL4-3, ARP-11803 [13]: 1
Fold change in EC50 relative to NL4-3, ARP-11807 [13]: 1
Fold change in EC50 relative to NL4-3, ARP-11808 [13]: 1

Cc1nc2c(c(C)c(C)n2Cc2cnn(C)c2)c(-c2ccc(Cl)cc2)c1[C@H](OC(C)(C)C)C(=O)O [STP0404, Pirmitegravir]
tolerability in clinical phase I study [14]: Well tolerated
